Source: patent publication US11413278B2, “Compounds and methods for promoting stress resistance” (priority 2015, dated 2022)
Like-named read-outs stand apart in the source and are kept apart here.

Legend:
NRF2 [1] = assay: qPCR analysis of NRF2-regulated genes; assay type: cell-based, human; conditions: for Potential NRF2 Activation (>=2 target genes induced, by >=1.5-fold): Assay 13(p); for fold induction at 10 µM: Homo sapiens
Summary of the method: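 Expression of HMOX1, NQO1, GCLC and GSTM1 measured by qPCR relative to B2M, PPIA and GAPDH. Cells were WI-38 fibroblasts exposed 24 hrs to 10 μM compound, with RNA and cDNA prepared via Cells-to-Ct. Where stated, cells were first transfected 36 hrs with FOXO3 or NRF2 siRNA at 10 nM.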

NRF2 [2] = assay: in vitro; assay type: cell-based, human; conditions: for NRF2-dependency for H2O2-resistance, at 10 uM - with H2O2, 2nd experiment: experiment 2 (2nd); for NRF2-dependency for H2O2-resistance (experiment 3): with & without H2O2, NRF2 knockdown in WI-38 cells; for Assay 17: NRF2-dependency for H2O2-resistance: YES/NO; for NRF2-dependency of H2O2-resistance (NRF2 siRNA knockdown): at least 2 of 3 independent experiments
LC3A/B puncta = assay: Autophagy induction analysis (LC3A/B puncta immuno-staining); assay type: cell-based, human; conditions: for Exp. 2, normalized change of nuclei numbers (Less cells): 20X objective, lysosomal LAMP co-staining
Procedure: Immuno-staining of LC3A/B was performed, following a standard protocol. Briefly, WI-38 cells were treated with small molecules for 24 hrs, and then processed and incubated with primary antibody (Cell Signaling, rabbit anti-LC3A/B, 1:100) overnight at 4° C. Next day, samples were processed and incubated with fluorophore-conjugated secondary antibody and further incubated with DAPI dye. Images were collected on the INCell Analyzer 2000 (Experiment 1: 10× objective; Experiment 2: 20× objective) and analyzed with the Developer Toolbox. For Experiment 2, lysosomal-associated membrane protein 2 (LAMP2) was also counter-stained to identify the LC3A/B puncta that colocalize with lysosome and the data were analyzed by the MetaXpress software (Molecular Devices, version 5.1). The intensity of total (Exp. 1) or LAMP2-colocalized LC3A/B puncta (Exp. 2) was normalized the total numbers nuclei in the fields.
These assays were performed, following the same procedures to analyze DNA-damage markers. WI-38 cells were incubated with small molecules for 24 hrs, and then processed and incubated with primary antibody (rabbit anti-LC3A/B, 1:100) overnight at 4 C. The next day, samples were processed and incubated with fluorophore-conjugated secondary antibody and further incubated with DAPI dye. Images were collected on an INCell Analyzer 2000 and analyzed with the Developer software. Total LC3A/B puncta intensity was normalized the total numbers of DAPI-positive nuclei.

C. elegans = C. elegans lifespan assays (liquid and plate); assay type: in vivo, Caenorhabditis elegans; conditions: for ILS at 60 µM / ILS at 66 µM: Caenorhabditis elegans; for O = Life span- extending scores in worms: score scale 0 to 2, 4 to 6 independent trials; for M = Lifespan-extending scores in worms: summary score; for Extension of C. elegans' lifespan (qualitative): in at least 3 to 4 trials, group range ~10% to ~50%
[3] = 24 h, Assay 12(o), at 10 uM, qPCR, read-out: Induction of NRF2-regulated genes: GCLC normalized fold-change
[4] = 24 h, Assay 12(o), at 10 uM, qPCR, read-out: Induction of NRF2-regulated genes: NQO1 normalized fold-change
[5] = rounded fold change, WI-38 cells, 10 μM, 24 hrs (RP29 for Gr-4D), read-out: Summary of effects on NRF2-regulated genes: NQO1
[6] = 10 μM, 24 hrs, WI-38, read-out: Expression of at least two NRF2 target genes
[7] = 10 μM, 24 hrs, WI-38 cells, qPCR, normalized to B2M, n = 4, read-out: NQO1 expression, normalized fold change (NRF2-regulated gene)
[8] = WI-38 cells, 10 μM, 24 hrs, n=4, qPCR normalized by B2M, read-out: GCLC Normalized fold change
[9] = WI-38 cells, 10 μM, 24 hrs, n=4, qPCR normalized by B2M, read-out: GSTM1 Normalized fold change
[10] = WI-38 cells, 10 μM, 24 hrs, n=4, qPCR normalized by B2M, read-out: HMOX1 Normalized fold change
[11] = WI-38 cells, 10 μM, 24 hrs, n=4, qPCR normalized by B2M, read-out: NQO1 Normalized fold change
[12] = 10 uM, YES = resistance reduced by at least 50%, partial = 25% to 50%
[13] = 10 uM, with H2O2, NRF2 knockdown in WI-38 cells, YES = resistance reduced by at least 50%, partial = 25% to 50%
[14] = 60 μM, in liquid, wild type, with FuDR, 1.0 × 10^9 bacteria/ml, read-out: relative change of mean lifespan vs control, Trial 1
[15] = 60 μM, in liquid, wild type, with FuDR, 2.5 × 10^9 bacteria/ml, read-out: relative change of mean lifespan vs control, Trial 2
[16] = 60 μM, on plate, CF512 temperature-sensitive sterile animals, without FuDR, 2.0 × 10^10 bacteria/ml, read-out: relative change of mean lifespan vs control, Trial 3
[17] = Assay 2(z), 1.0 × 10^9 bacteria/ml, wild type + FuDR (2012 July), read-out: Lifespan assay in liquid
[18] = Assay 3(aa), 2.5 × 10^9 bacteria/ml, wild type + FuDR, read-out: Lifespan assay in liquid
[19] = Assay 4(ab), 2.0 × 10^10 bacteria/ml, CF512 worms, no FuDR, read-out: Lifespan assay on plates
[20] = 24 h, Assay 12(o), at 10 uM, qPCR, read-out: Induction of NRF2-regulated genes: HMOX1 normalized fold-change

Row | Structure (SMILES) | F = Potential NRF2 Activation (NRF2 [1]; 2-point score) | Potential NRF2 Activation (>=2 target genes induced, by >=1.5-fold) (NRF2 [1]) | fold induction at 10 µM (NRF2 [1]; [8]) | fold induction at 10 µM (NRF2 [1]; [9]) | fold induction at 10 µM (NRF2 [1]; [10]) | fold induction at 10 µM (NRF2 [1]; [11]) | F = Potential NRF2 Activation (NRF2 [1]; summary score) | J = NRF2-dependency for H2O2-resistance (NRF2 [2]; score) | J = NRF2-dependency for H2O2-resistance (NRF2 [2]; summary score) | H = Potential Autophagy Induction (LC3A/B puncta; score) | H = Potential Autophagy Induction (LC3A/B puncta; summary score) | ILS at 60 µM (C. elegans; [14]) | ILS at 60 µM (C. elegans; [15]) | ILS at 60 µM (C. elegans; [16]) | ILS at 66 µM (C. elegans; [17]) | ILS at 66 µM (C. elegans; [18]) | ILS at 66 µM (C. elegans; [19]) | O = Life span- extending scores in worms (C. elegans) | M = Lifespan-extending scores in worms (C. elegans) | fold induction at 10 µM (NRF2 [1]; [20]) | other results
1 | COC(=O)CCc1sc2c(c1[N+](=O)[O-])NC(=O)CCC2 [O20] | 2 | YES | 1.76 | 1.36 | 0.937 | 2.49 | 2 | 1 | 1 | 0 | 0 | 18.8% | 3.4% | 11.3% | 18.8% | 3.4% | 11.3% | 1 (1 for lifespan extension observed in 2 trials) | 1 (1 for lifespan extension observed in 2 trials) |  | fold induction at 10 µM (NRF2 [1]; [3]): 1.76; fold induction at 10 µM (NRF2 [1]; [4]): 2.49; fold induction at 10 µM (NRF2 [1]; [5]): 2.49; fold induction at 10 µM (NRF2 [1]; rounded fold change, WI-38 cells, 10 μM, 24 hrs, read-out: Summary of effects on NRF2-regulated genes: GCLC): 1.76; fold induction at 10 µM (NRF2 [1]; [6]): > 1.5; fold induction at 10 µM (NRF2 [1]; 10 μM, 24 hrs, WI-38 cells, qPCR, normalized to B2M, n = 4, read-out: GCLC expression, normalized fold change (NRF2-regulated gene)): 1.76; fold induction at 10 µM (NRF2 [1]; [7]): 2.49; NRF2-dependency for H2O2-resistance, at 10 uM - with H2O2, 1st experiment (NRF2 [2]; 10 uM, experiment 1 (1st), with H2O2): 1st, YES;; NRF2-dependency for H2O2-resistance, at 10 uM - with H2O2, 2nd experiment (NRF2 [2]; 10 uM, with H2O2): 2nd, YES.; NRF2-dependency for H2O2-resistance, at 10 uM (experiment 3) - with & without H2O2 (NRF2 [2]; 10 uM): YES; NRF2-dependency for H2O2-resistance (experiment 3) (NRF2 [2]; [12]): YES; NRF2-dependency for H2O2-resistance, 1st experiment (NRF2 [2]; [13]): YES;; NRF2-dependency for H2O2-resistance, 2nd experiment (NRF2 [2]; [13]): YES.; Assay 17: NRF2-dependency for H2O2-resistance (NRF2 [2]; 10 uM): YES; Reduction of H2O2-resistance capacity upon NRF2 knockdown, on average (NRF2 [2]; 3 of 3 experiments): ~90%; NRF2-dependency of H2O2-resistance (NRF2 siRNA knockdown) (NRF2 [2]): significantly attenuate
2 | O=C(/C=C/c1cn(-c2ccccc2)nc1-c1cccnc1)c1ccccc1 [Gr-6B] | 2 | YES | 0.797 | 1.22 | 1.88 | 1.52 | 2 | 1 | 1 | 0 | 0 | 3% | 0.2% | 20.6% | 3% | 0.2% | 20.6% | 0 | 0 | 1.88 | fold induction at 10 µM (NRF2 [1]; [4]): 1.52; fold induction at 10 µM (NRF2 [1]; rounded fold change, WI-38 cells, 10 μM, 24 hrs (RP11 for Gr-1D, RP29 for Gr-4D), read-out: Summary of effects on NRF2-regulated genes: HMOX1): 1.88; fold induction at 10 µM (NRF2 [1]; [5]): 1.52; fold induction at 10 µM (NRF2 [1]; [6]): > 1.5; fold induction at 10 µM (NRF2 [1]; 10 μM, 24 hrs, WI-38 cells, qPCR, normalized to B2M, n = 4, read-out: HMOX1 expression, normalized fold change (NRF2-regulated gene)): 1.88; fold induction at 10 µM (NRF2 [1]; [7]): 1.52; NRF2-dependency for H2O2-resistance, at 10 uM - with H2O2, 2nd experiment (NRF2 [2]; 10 uM, with H2O2): 2nd, partial.; NRF2-dependency for H2O2-resistance, at 10 uM (experiment 3) - with & without H2O2 (NRF2 [2]; 10 uM): YES; NRF2-dependency for H2O2-resistance (experiment 3) (NRF2 [2]; [12]): YES; NRF2-dependency for H2O2-resistance, 2nd experiment (NRF2 [2]; [13]): partial.; Assay 17: NRF2-dependency for H2O2-resistance (NRF2 [2]; 10 uM): YES; NRF2-dependency of H2O2-resistance (NRF2 siRNA knockdown) (NRF2 [2]): significantly attenuate; ILS at 60 µM (C. elegans; 60 μM, on plate, CF512 temperature-sensitive sterile animals, without FuDR, 1.0 × 10^11 bacteria/ml, read-out: relative change of mean lifespan vs control, Trial 4): -1.3%; ILS at 66 µM (C. elegans; Assay 5(ac), 1.0 × 10^11 bacteria/ml, CF512 worms, no FuDR, read-out: Lifespan assay on plates): -1.3%
3 | O=C(Nc1cccc(C(F)(F)F)c1)c1ccc([N+](=O)[O-])o1 [Gr-1E] | 0 |  | 1.55 | 2.11 | 1.06 | 1.11 | 0 | 0 | 0 | 0 | 0 | 17.4% | 6.3% | 13.8% | 17.4% | 6.3% | 13.8% | 2 (2 for observed in more than 2 trials) | 2 (2 for observed in more than 2 trials) | 0.79 | fold induction at 10 µM (NRF2 [1]; [3]): 1.36; fold induction at 10 µM (NRF2 [1]; rounded fold change, WI-38 cells, 10 μM, 24 hrs (RP29 for Gr-4D), read-out: Summary of effects on NRF2-regulated genes: GSTM1): 2.11; fold induction at 10 µM (NRF2 [1]; 10 μM, 24 hrs, WI-38 cells, qPCR, normalized to B2M, n = 4, read-out: GSTM1 expression, normalized fold change (NRF2-regulated gene)): 2.11; Exp. 1, induction of LC3A/B puncta (Up), total intensity normalized by total number of nuclei in the fields (LC3A/B puncta; Exp. 1, 10 μM, 10X objective, WI-38 cells): Up, 260%, p < 0.01; Exp. 2, normalized change of nuclei numbers (Less cells) (LC3A/B puncta; Exp. 2, 10 μM, WI-38 cells): Less cells, 75%,; Exp. 2, normalized change of nuclei numbers (Less cells) (LC3A/B puncta; Exp. 2, 20 μM, WI-38 cells): Less cells, 58%,; Extension of C. elegans' lifespan (qualitative) (C. elegans): could extend animal's lifespan
4 | Nc1ccccc1S(=O)(=O)Nc1cccc2cccnc12 [Gr-3C] | 0 |  | 0.991 | 1.45 | 1.12 | 1.19 | 0 | 0 | 0 | 0 | 0 |  |  |  | 18.9% | 11.9% | 8% | 2 (2 for observed in more than 2 trials) | 2 (2 for observed in more than 2 trials) | 0.86 | ILS at 60 µM (C. elegans; read-out: relative change of mean lifespan vs control, Trial 1): 18.9%; ILS at 60 µM (C. elegans; read-out: relative change of mean lifespan vs control, Trial 2): 11.9%; ILS at 60 µM (C. elegans; read-out: relative change of mean lifespan vs control, Trial 3): 8%; Extension of C. elegans' lifespan (qualitative) (C. elegans): could extend animal's lifespan
